Reference: EPA's ToxValDB 9.5
“And” between values parts separate entries of the source, which are not always exact repeats. Identical values can stand only once.

Legend:
Oryctolagus sp. = conditions: subchronic, inhalation
Rattus norvegicus [1] = conditions: subchronic, oral, drinking water, Fischer 344, Deaths + Clinical Observation: Emaciation Diarrhea Abnormal posture Tremors + Body Weight Changes: decrease + Water Consumption: decrease + …
Rattus norvegicus [2] = conditions: acute
Cavia porcellus = conditions: acute; inhalation; Guinea Pig
Mus musculus [3] = conditions: acute
Rattus norvegicus [4] = conditions: for LEL: uterotrophic, Active
Mus musculus [5] = conditions: uterotrophic, injection, subcutaneous, Active
Canidae [6] = conditions: oral
Rattus norvegicus [7] = conditions: subchronic; duration: 2 months; inhalation; unknown; Wistar; respiratory
Rattus norvegicus [8] = test system: Rattus norvegicus
Rattus norvegicus [9] = conditions: chronic; duration: 2 years; oral; Increased methaemoglobin and sulfhaemoglobin levels
Canidae [10] = conditions: chronic; oral; diet; M/F; Dog Other; methemoglobin and sulfhemoglobin formation
Mus musculus [11] = conditions: repeat dose other; oral
[12] = M/F, New Zealand, reduced testes weight, seminiferous tubule degeneration and reduced hemoglobin
[13] = subchronic, duration: 3 months, gavage, M/F, Beagle, Mydriasis
[14] = reproduction developmental, oral, drinking water, M/F, neurodevelopmental effects
[15] = chronic, duration: 1 years, gavage, M/F, Beagle, Mydriasis and focal neuronal degeneration

Which LOAEL (Oryctolagus sp.; [12]) does the source give for CCOCCO [2-Ethoxyethanol] here?
Its LOAEL is 1480 mg/m3.

What about the NOAEL (Oryctolagus sp.; [12]) of the same compound?
The NOAEL was 380 mg/m3.

What about the NOEL (Rattus norvegicus [1]; F) of the same compound?
Its NOEL is 122 mg/kg-day.

What about the NOEL (Rattus norvegicus [1]; M/F) of the same compound?
The NOEL was under 190 mg/kg-day.

For N#CCCSCCC#N [3,3'-Thiodipropionitrile], which LC50 (Rattus norvegicus [2]; inhalation) is on record?
The LC50 was over 88.9 mg/m3.

And the LC50 (Cavia porcellus)?
Its LC50 is over 88.9 mg/m3.

And the LC50 (Mus musculus [3]; inhalation)?
The LC50 was over 88.9 mg/m3.

What about the LD50 (Mus musculus [3]; oral, gavage, albino) of the same compound?
Its LD50 is 3750 mg/kg.

What does the source list for CCCCCCCCCc1ccc(O)cc1 [4-Nonylphenol]?
LEL (Rattus norvegicus [4]; duration: 1 days, injection, subcutaneous): 200 mg/kg-day and 600 mg/kg-day; LEL (Rattus norvegicus [4]; duration: 3 days, injection, intraperitoneal): 100 mg/kg-day; LEL (Rattus norvegicus [4]; duration: 5 days, oral): 100 mg/kg-day; LEL (Rattus norvegicus [4]; duration: 7 days, oral): 120 mg/kg-day; LEL (Rattus norvegicus [4]; duration: 11 days, oral): 150 mg/kg-day; LEL (Mus musculus [5]; duration: 0.17 days): 0.022 mg

How did the LOEL (Canidae [6]; [13]) turn out when Cc1ccc2c(=O)c3cccc(CC(=O)O)c3oc2c1C [5,6-Dimethylxanthenone-4-acetic acid] was run?
The LOEL was 0.3 mg/kg-day.

And the NOEL (Canidae [6]; [13])?
Its NOEL is 0.1 mg/kg-day.

[O][Cl+][O-] [Chlorine dioxide] was tested. Which LOAEL (Rattus norvegicus [7]) did it give?
The LOAEL was 2.76 mg/m3.

What about the LOAEL (Rattus norvegicus [8]; [14]) of the same compound?
Its LOAEL is 6 mg/kg-day.

What about the NOAEL (Rattus norvegicus [8]; [14]) of the same compound?
The NOAEL was 3 mg/kg-day.

What about the LOAEL (Rattus norvegicus [8]; subchronic, duration: 60 days, inhalation, vascular congestion and peribronchial edema) of the same compound?
The LOAEL was 2.76 mg/m3.

And the LOAEL (Oryctolagus sp.; duration: 45 days, Hemorrhagic alveoli and congested capillaries the lungs)?
Its LOAEL is 6.9 mg/m3.

Which LOEL (Rattus norvegicus [4]; Hershberger, duration: 10 days, oral, gavage, Wistar, active + Negative + Antiandrogenic + anti-androgenic) does the source give for CC(=O)O[C@]1(C(C)=O)CC[C@H]2[C@@H]3C=C(Cl)C4=CC(=O)[C@@H]5C[C@@H]5[C@]4(C)[C@H]3CC[C@@]21C [Cyproterone acetate] here?
The LOEL was 0.4 mg/kg-day.

What about the LEL (Rattus norvegicus [4]; duration: 36 days, injection, subcutaneous) of the same compound?
The LEL was 3 mg and 1 mg/day.

What about the LEL (Mus musculus [5]; duration: 36 days) of the same compound?
Its LEL is 2 mg and 1 mg/day.

With O=C(NC(=O)c1c(F)cccc1F)Nc1ccc(Cl)cc1 [Diflubenzuron] as the compound, how does the NOAEL (Rattus norvegicus [9]) read?
The NOAEL was 2 mg/kg-day.

And the NOAEL (Canidae [6]; chronic, duration: 1 years, Dog Other, Increased methaemoglobin and sulfhaemoglobin levels, platelet counts and hepatic pigmentation)?
The NOAEL was 2 mg/kg-day.

And the LEL (Canidae [10])?
The LEL was 10 mg/kg-day.

And the NOEL (Canidae [10])?
Its NOEL is 2 mg/kg-day.

Which results are given for CCCCCCOC(=O)c1ccccc1C(=O)OCCCCCC [Dihexyl phthalate]?
LOAEL (Mus musculus [11]): 550 mg/kg-day; NOAEL (Mus musculus [11]): 55 mg/kg-day; LD50 (Rattus norvegicus [2]; oral): 38.9 mg/kg and 29.6 mg/kg

With CC(=O)NCC(=O)O.CC(=O)NCC(=O)O.N=C(N)c1ccc(N=NNc2ccc(C(=N)N)cc2)cc1 [Diminazene diaceturate] as the compound, how does the LOEL (Canidae [6]; chronic, duration: 9 months, capsule, M/F, Beagle, Decreased bodyweights, mortality, prostatic malfunction, foci of softening in the brainstem, & testicular atrophy) read?
The LOEL was 60 mg/kg-day.

And the LOEL (Canidae [6]; duration: 9 months, capsule, M/F, Beagle, Decreased bodyweights, mortality, prostatic malfunction, foci of softening in the brainstem, & testicular atrophy)?
The LOEL was 60 mg/kg-day.

Which results are given for CO[C@H]1C[C@H](O[C@H]2[C@H](C)O[C@@H](O[C@@H]3/C(C)=C/C[C@@H]4C[C@@H](C[C@]5(C=C[C@H](C)[C@@H](C6CCCCC6)O5)O4)OC(=O)[C@@H]4C=C(C)[C@@H](O)[C@H]5OC/C(=C\C=C\[C@@H]3C)[C@]54O)C[C@@H]2OC)O[C@@H](C)[C@@H]1O [Doramectin]?
LOEL (Canidae [6]; duration: 3 months, gavage, M/F, Beagle, Mydriasis): 0.3 mg/kg-day; NOEL (Canidae [6]; subchronic, duration: 3 months, gavage, M/F, Dog Other, Mydriasis): 0.1 mg/kg-day

Which LOAEL (Canidae [6]; [15]) does the source give for CO[C@H]1C[C@H](O[C@@H]2/C(C)=C\C[C@@H]3C[C@@H](C[C@]4(C=C[C@H](C)[C@@H](C(C)C)O4)O3)OC(=O)[C@@H]3C=C(C)[C@@H](O)[C@H]4OC/C(=C/C=C\[C@@H]2C)[C@]43O)O[C@@H](C)[C@H]1O[C@H]1C[C@@H](OC)[C@H](NC(C)=O)[C@H](C)O1 [Eprinomectin] here?
The LOAEL was 2 mg/kg-day.

What about the NOEL (Canidae [6]; [15]) of the same compound?
The NOEL was 1 mg/kg-day.

Which LEL (Mus musculus [5]; duration: 5 days) does the source give for C=C1C[C@]23C[C@@]1(O)CC[C@H]2[C@@]12C=C[C@H](O)[C@@](C)(C(=O)O1)[C@H]2[C@@H]3C(=O)O [Gibberellic acid] here?
Its LEL is 0.0001 mg/day.
